This assay deals with CMG2 (Capillary Morphogenesis Gene protein 2) (Homo sapiens, UniProt P58335, R40C). The assay is classed as binding.
Sequence of CMG2 (Capillary Morphogenesis Gene protein 2) (P58335 34-489 R40C limits assumed): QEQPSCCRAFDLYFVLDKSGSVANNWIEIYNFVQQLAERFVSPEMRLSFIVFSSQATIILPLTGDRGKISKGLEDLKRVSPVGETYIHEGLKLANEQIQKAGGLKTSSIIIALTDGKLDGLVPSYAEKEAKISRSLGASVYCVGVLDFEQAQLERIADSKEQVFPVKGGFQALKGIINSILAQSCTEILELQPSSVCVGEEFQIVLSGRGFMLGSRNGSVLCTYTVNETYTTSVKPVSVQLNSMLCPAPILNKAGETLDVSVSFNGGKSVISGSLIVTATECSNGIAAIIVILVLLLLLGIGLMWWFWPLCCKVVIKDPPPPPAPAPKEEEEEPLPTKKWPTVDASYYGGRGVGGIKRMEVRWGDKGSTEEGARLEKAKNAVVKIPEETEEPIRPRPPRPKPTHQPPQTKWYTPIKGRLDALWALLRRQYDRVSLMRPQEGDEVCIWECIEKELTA

For 7-O-methyl neolambertellin [compound 1], the IC50 was determined as 500 nM.

As a reminder, the IC50 is the concentration that gives 50% inhibition.

The record behind these values is article PMC3563091 (Bioorganic & medicinal chemistry letters, 2012).
